Columns and labels:
kynurenine 3-hydroxylase = molecular target: T1, kynurenine 3-hydroxylase (Rattus norvegicus, UniProt O88867); assay: Inhibitory activity on kynurenine 3-hydroxylase in rat liver homogenate; format: biochemical; details: mean of two experiments, read-out: IC50, kynurenine 3-hydroxylase inhibition
T1 construct: from tissue; host or cells: rat liver homogenate (12000 rpm pellet, resuspended)
Protocol: Study of the Inhibitory Activity on Kynurenine 3-Hydroxylase in Rat Liver
Rat livers are homogenised (1:8 weight/volume) in a buffer solution comprising: 0.25 M sucrose; 50 mM pH 7.4 Tris; 1 mM EDTA; and 1 mM DTT.
The homogenates are centrifuged for 10 minutes at 12000 rpm. The pellets are resuspended in the buffer solution described above (1:2 weight/volume).
The kynurenine 3-hydroxylase inhibition is determined by incubating 10 μL of the homogenate with NADPH (2 mM), kynurenine (100 μM) and various concentrations of the test compounds in a final volume of 100 μL at 37° C. for 5 minutes.
The compounds are tested at concentrations of between 1 μM and 300 μM. 3,4-Dimethoxy-N-[4-(3-nitrophenyl)thiazol-2-yl]benzenesulfonamide is a compound from the company Hoffmann-LaRoche (Basle, see J. Med. Chem., 40 (1997), 4738). 30H-Kynurenine was tested according to the protocol described by Carpendo et al. (Neuroscience, 61 (1994), 237-244).
Each of the experiments is repeated once and the IC50 values (in μmol/L) are calculated and given in the form of a mean of these two experiments.
Results concerning representative examples of family Ih are given in Table II below, in which is indicated the measurement of the percentage of remaining kynurenine 3-hydroxylase activity relative to the control (100%).

hepatocytes = assay: Hepatic glucose production in vitro in isolated hepatocytes (Table IV); format: cell-based, Wistar rats; details: Rattus norvegicus, Hepatocyte
Protocol: The following two methods were used:
1) The hepatocytes are cultured for 16 to 18 hours in DMEM medium in the presence of AMP cyclase/dexamethasone at respective concentrations of 5×10^−5 M and 5×10^−7 M, with preincubation of the products at the test doses. After washing in pH 7.4 PBS buffer, the cells are incubated for three hours at 37° C. in a Krebs/AMPc/DEX buffer at the abovementioned concentrations. 0.1 μM insulin is used as reference substance. Two identical experiments are performed (Table III-1).
After washing in pH 7.4 PBS buffer, the cells are incubated for two hours at 37° C. in a Krebs buffer free of glucose and of insulin, containing lactate/pyruvate (10/1 mM) in the presence or absence of the test compounds. 10 μM MICA (5-methoxyindole-2-carboxylic acid) is used as reference substance. Two identical experiments are performed (Table III-2).
The protein assay is performed on the rest of the incubation medium via the Lowry method (BIO-RAD Dc protein assay, BIO-RAD 5000116).
The results are expressed as nmoles of glucose produced per […] of proteins. The statistical test used is the t test.

[1] = system: perfused isolated pancreases from N0 STZ diabetic rats; assay: Secretion of insulin and glucagon in perfused isolated pancreases from N0 STZ diabetic rats; format: cell-based; details: perfused diabetic rat pancreas; absence of glucose, then 16.5 mM glucose; glucose-dependent
Text: The results are expressed as the mean ±SEM (standard error of mean) of several experiments. The statistical test used is the Scheffé test.

T1 sequence (O88867 whole entry): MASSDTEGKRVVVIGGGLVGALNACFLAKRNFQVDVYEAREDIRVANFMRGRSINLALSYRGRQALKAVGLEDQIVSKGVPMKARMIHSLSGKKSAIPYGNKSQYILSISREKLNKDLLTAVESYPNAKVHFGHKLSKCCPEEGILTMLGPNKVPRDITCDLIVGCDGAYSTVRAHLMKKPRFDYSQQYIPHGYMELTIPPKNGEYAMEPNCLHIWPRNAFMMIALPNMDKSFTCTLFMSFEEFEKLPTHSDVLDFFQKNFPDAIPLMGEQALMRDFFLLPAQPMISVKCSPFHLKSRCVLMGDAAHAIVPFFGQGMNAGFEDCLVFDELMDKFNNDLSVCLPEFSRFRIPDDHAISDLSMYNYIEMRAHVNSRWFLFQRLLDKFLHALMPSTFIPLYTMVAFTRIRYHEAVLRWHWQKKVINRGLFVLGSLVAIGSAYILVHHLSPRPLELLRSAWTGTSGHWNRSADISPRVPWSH

- IC50 (kynurenine 3-hydroxylase): 10 ± 2.1 µM
Structure (SMILES): COc1ccc(S(=O)(=O)Nc2nc(-c3cccc([N+](=O)[O-])c3)cs2)cc1OC [Compound k, 3,4-dimethoxy-N-[4-(3-nitrophenyl)thiazol-2-yl]benzenesulfonamide]
- inhibition at 10 µM (hepatocytes; 10 μM): 0%
- inhibition at 100 µM (hepatocytes; 100 μM): 22%
- glucagon secretion (in words) [1]: stimulation
- insulin secretion (in words) [1]: stimulation

Reference: patent US20060052456A1, “Kynurenine 3-hydroxylase inhibitors for the treatment of diabetes by increasing the number of islets of langerhans cells” (MERCK PATENT GMBH, priority 2003, published 2006)
